Test results from article PMC8246325, “Toxicity of Jegosaponins A and B from Styrax japonica Siebold et al. Zuccarini in Prostate Cancer Cells and Zebrafish Embryos Resulting from Increased Membrane Permeability” (International Journal of Molecular Sciences, 2021).

Tests used:
[1] = system: PC-3 prostate cancer cells; test: Cell viability assay (CellTiter-Glo) in PC-3 cells; format: cell-based, human; settings: for Suppression of viability of PC-3 cells: 1 µM, 48 h (Figure S1); for CC50: Homo sapiens, PC-3 cells, 48 h treatment, read-out: PC-3 cell viability, lethal concentration 50 (LC50)
Procedure: (§1) Human prostate cancer PC-3, […], and LNCaP cells were obtained from Riken Bioresource Center (Tokyo, Japan) and cultured in Dulbecco’s modified Eagle medium-low glucose (DMEM; Sigma-Aldrich, St. Louis, MO, USA), supplemented with 10% fetal bovine serum (FBS; Biowest SAS, Nuaille, France) and 1% penicillin-streptomycin (Fujifilm Wako Pure Chemicals) at 37 °C in a humidified 5% CO2 atmosphere. For screening, the cells were seeded (3 × 10^3 cells/well) in a 96-well plate and cultured for 24 h in DMEM supplemented with 1% FBS. The tested compounds were then administered to the cells. Forty-eight hours after administration, cell viability was measured using the CellTiter-Glo luminescent cell viability assay (Promega, Madison WI, USA) according to the manufacturer’s protocol. Luminescence signals were measured using a Victor2 microplate reader (PerkinElmer, Boston, MA, USA). For the negative control (0 μM jegosaponin A and B), 0.1% dimethyl sulfoxide (vehicle) was used. Cell viability was calculated as the ratio of the negative controls. The assay was performed in triplicate.

DU145 = test: Cell viability assay (CellTiter-Glo) in DU145 cells; format: cell-based, human; settings: 1 µM, 48 h (Figure S1)
Procedure: as §1

LNCaP = test: Cell viability assay (CellTiter-Glo) in LNCaP cells; format: cell-based, human; settings: 1 µM, 48 h (Figure S1)
Procedure: as §1

[2] = Zebrafish embryo acute toxicity test (ZFET); parameters: species or system zebrafish (Danio rerio); settings: AB, in vivo, other: embryos exposed in 6-well plates; for LC50 at 120 h: embryos exposed from 5 hpf to 120 hpf; for LC50 at 24 h: embryos exposed from 5 hpf, 24 h after administration (to 24 hpf)
Procedure: Zebrafish AB strain (Zebrafish International Resource Center, Eugene, OR, USA) was maintained in our facility according to standard operational guidelines. All animal procedures were performed by the Ethics Committee of Mie University, according to the Japanese Animal Welfare Regulation ‘Act on Welfare and Management of Animals’ (Ministry of Environment of Japan), and complied with international guidelines.
ZFETs were performed as previously reported. In brief, blastula stage embryos (approximately 5 h post fertilisation (hpf)) were transferred into 6-well plates and exposed to jegosaponin A or B at 28 °C until 120 hpf. Each group contained nine fish in three triplicates. The number of surviving embryos was counted every 24 h.

sheep red blood cells = test: Haemolysis assay; format: cell-based; settings: Ovis aries, Erythrocyte; RBC, 1 h (Table 1); read-out: RBC Hemolysis HD50 (1 h)
Procedure: A haemolysis assay was performed as previously reported. Five millilitres of sheep defibrinated blood (Nippon Bio-Supp. Centre, Tokyo, Japan) was diluted in 45 mL of Dulbecco’s phosphate-buffered saline (DPBS) to obtain a total volume of 50 mL. The cell suspension was centrifuged at 500× g for 5 min, and the supernatant was discarded. This procedure was repeated three times, and DPBS was added to the precipitate, and the red blood cell (RBC) count was adjusted to ~5×10^8 cells/mL. The RBC suspension (500 µL) was placed into a 1.5 mL storage tube, and the reagent was administered and incubated for 30 min on ice. […] The cell suspension was then centrifuged at 500× g for 5 min. The haemoglobin concentration in the supernatant was measured by measuring the UV absorbance at 540 nm.

PC-3 cells = test: DRAQ7 membrane permeability assay in PC-3 cells; format: cell-based; settings: Homo sapiens; for IC50: 1 h (Table 1); for EC50: DRAQ7 membrane-impermeable dye, read-out: EC50 of DRAQ7 nucleus staining (DRAQ7 positive cells)
Procedure: (§2) PC-3 cells were seeded (4 × 10^3 cells/well) in ibidi 8-well μ-Slide (Ibidi, Munich, Germany) in DMEM supplemented with 10% FBS and cultured for 24 h. Then, DRAQ7 (DRAQ7 DROP & GO; Biostatus, Shepshed, UK) and the tested compounds were added to the cells. After an appropriate time, the cells were imaged using a BZ-X710 fluorescence microscope (Keyence, Tokyo, Japan). For zebrafish embryos, 48 hpf embryos were treated with DRAQ7 and the tested compounds and imaged using a BZ-X710 fluorescent microscope.

48 hpf zebrafish = test: DRAQ7 membrane permeability assay in zebrafish; format: in vivo, zebrafish (Danio rerio); settings: for Lethality to zebrafish embryos at high concentration: 60 min; for DRAQ7 signals in zebrafish (cell membrane permeability): 30 min of exposure, mainly tail regions
Procedure: as §2

caspase-3 and caspase-7 = test: Caspase 3/7 assay (Caspase-Glo 3/7) in PC-3 cells; format: cell-based, human; settings: for Caspase 3/7 activities in PC-3 cells: 3 or 6 h; for Induction of caspase-3 and caspase-7 activities: PC-3 cells, sub-IC50 concentrations
Procedure: PC-3 cells were seeded (3 × 10^3 cells/well) in a 96-well plate in DMEM containing 10% FBS for 24 h and treated with the test compounds. Caspase-Glo 3/7 assay (Promega) was performed according to the manufacturer’s instructions. Luminescence signals were measured using a Victor2 microplate reader (PerkinElmer).

Row | Structure (SMILES) | Suppression of viability of PC-3 cells [1] | CC50 [1] | LC50 at 120 h [2] | LC50 at 24 h [2] | EC50 (sheep red blood cells) | IC50 (PC-3 cells) | EC50 (PC-3 cells) | DRAQ7 signals in zebrafish (cell membrane permeability) (48 hpf zebrafish) | Induction of caspase-3 and caspase-7 activities (caspase-3 and caspase-7) | also measured
1 | C/C=C(\C)C(=O)O[C@H]1[C@H](O)[C@@]2(COC(C)=O)C(CC1(C)C)C1=CCC3[C@@]4(C)CC[C@H](O[C@@H]5O[C@H](C(=O)O)[C@@H](O[C@@H]6O[C@H](CO)[C@H](O)[C@H](O)[C@H]6O[C@@H]6O[C@@H](C)[C@H](O)[C@@H](O)[C@H]6O)[C@H](O)[C@H]5O[C@@H]5O[C@H](CO)[C@@H](O)[C@H](O)[C@H]5O)C(C)(C)C4CC[C@@]3(C)[C@]1(C)C[C@H]2O (stereo partly drawn) [Jegosaponin B, jegosaponin B] | suppress viability | 1.6 µM | 1.3 µM | 1.4 µM | 20.2 µM | 6 µM | 6 ± 1.2 µM | apparently increased DRAQ7 signals | no apparent induction of their activities | Suppression of viability of DU145 cells (DU145; listed as B): suppress viability; Suppression of viability of DU145 cells (DU145; listed as jegosaponin B): suppressed the viability; Suppression of viability of LNCaP cells (LNCaP; listed as B): suppress viability; Suppression of viability of LNCaP cells (LNCaP; listed as jegosaponin B): suppressed the viability; Lethality to zebrafish embryos at high concentration (48 hpf zebrafish; 12 μM): killed all embryos; Caspase 3/7 activities in PC-3 cells (caspase-3 and caspase-7; 0.5 µM): do not affect caspase 3/7 activities
2 | C/C=C(\C)C(=O)O[C@H]1[C@H](OC(C)=O)[C@@]2(CO)C(CC1(C)C)C1=CCC3[C@@]4(C)CC[C@H](O[C@@H]5O[C@H](C(=O)O)[C@@H](O[C@@H]6O[C@H](CO)[C@H](O)[C@H](O)[C@H]6O[C@@H]6O[C@@H](C)[C@H](O)[C@@H](O)[C@H]6O)[C@H](O)[C@H]5O[C@@H]5O[C@H](CO)[C@@H](O)[C@H](O)[C@H]5O)C(C)(C)C4CC[C@@]3(C)[C@]1(C)C[C@H]2O (stereo partly drawn) [Jegosaponin A, jegosaponin A] | suppress viability | 0.7 µM | 0.5 µM | 0.7 µM | 2.1 µM | 3.4 µM | 3.4 ± 0.6 µM | apparently increased DRAQ7 signals | no apparent induction of their activities | Suppression of viability of DU145 cells (DU145): suppress viability; Suppression of viability of DU145 cells (DU145; listed as jegosaponin A): suppressed the viability; Suppression of viability of LNCaP cells (LNCaP): suppress viability; Suppression of viability of LNCaP cells (LNCaP; listed as jegosaponin A): suppressed the viability; Lethality to zebrafish embryos at high concentration (48 hpf zebrafish; 6 μM): killed all embryos; Caspase 3/7 activities in PC-3 cells (caspase-3 and caspase-7; 1.5 µM): do not affect caspase 3/7 activities
